Measured values published in patent US8946478B2, “Benzamide derivative with anticancer activity and preparation method and use thereof” (Zhejiang Hisun Pharmaceutical Co., Ltd., priority 2010, dated 2015).

What was measured:
[1] = test system: human pancreatic cancer cell strain PANC-1 xenograft; assay: Human cancer xenograft tumor model in nude mouse; type: in vivo, BALB/C nude mice; settings: PANC-1 model, 21 d, intraperitoneal once a day, T/C < 60% = effective
Description: (§1) 5-6 week old female or male BALB/C nude mice, about 18-20 g in weight, were raised. Human cancer xenograft tumor model in nude mouse was established by the following steps: human colon cancer cell strains HCT-116 and Colo205, human breast cancer cell strain MDA-MB435, human prostate cancer cell strain BXPC-3, human ovarian cancer cell strain SKOV-3, human lung cancer cell strain A549, human pancreatic cancer cell strain PANC-1, and human uterine cancer cell strain Hela were all obtained from ATCC. Each cell strain was cultured, and monolayer of cultured tumor cells were digested off the walls, collected and resuspended in serum-free culture medium, and adjusted to a concentration of 2×10^6/0.2 mL, which was then brought to the animal room in an ice box. 0.2 mL cell suspension was drawn directly by a syringe with […] and subcutaneously transplanted into the scapula part of the rear part of nude mouse's left armpit, 2×10^6/0.2 mL for each mouse, and the tumor volume was measured every 2-3 days. After two weeks, tumor was removed under sterile conditions from tumor-bearing nude mice with vigorous tumor growth and without diabrosis. The tumor tissue was cut into pieces of about 2˜3 mm and inoculated subcutaneously into the scapula part of the rear part of nude mouse's left armpit. After three passages, when the tumor volume reached 100 mm^3, the nude mice with too large or too small tumors were eliminated and the rest were randomly divided into groups for the administration.
(§2) The mice were randomly divided into 5 groups, including negative control group (solvent), positive control group (BSI-201, 80 mg/kg), and three treatment groups with high, middle and low doses (40 mg/kg, 30 mg/kg, and 20 mg/kg respectively, wherein the high dose was below the MTD), and there were 8 nude mice in each group except that there are 16 ones in the negative control group. They were administered by intraperitoneal injection once a day for 3 consecutive weeks, during which body weight and tumor volume of the animals were detected and the death number of animals was recorded every 2 days. The animals were sacrificed 24 hours after the last administration, and the volume sizes of tumor, tumor weight, and body weight of nude mice were measured; growth curves of tumor volume, growth curves of body weight of nude mice and tumor inhibition rate, animal mortality were plotted, and relative tumor proliferation rate T/C (%) was calculated according to the equation T/C (%)=TRTV/CRTV*100%. (TRTV: RTV of the treatment group; CRTV: RTV of the negative control group, relative tumor volume RTV=Vt/V0, wherein V0 is the tumor volume when the mice were divided into groups for administration, Vt is the tumor volume after the administration).

[2] = test system: human lung cancer cell strain A549 xenograft; assay: Human cancer xenograft tumor model in nude mouse; type: in vivo, BALB/C nude mice; settings: 21 d, intraperitoneal once a day, T/C < 60% = effective
Description: as §1, §2

[3] = test system: human colon cancer cell strain HCT-116 xenograft; assay: Human cancer xenograft tumor model in nude mouse; type: in vivo, BALB/C nude mice; settings: HCT-116 model, 21 d, intraperitoneal once a day, T/C < 60% = effective
Description: as §1, §2

[4] = test system: human breast cancer cell strain MDA-MB435 xenograft; assay: Human cancer xenograft tumor model in nude mouse; type: in vivo, BALB/C nude mice; settings: MDA-MB-435 model, 21 d, intraperitoneal once a day, T/C < 60% = effective
Description: as §1, §2

[5] = test system: human prostate cancer cell strain BXPC-3 xenograft; assay: Human cancer xenograft tumor model in nude mouse; type: in vivo, BALB/C nude mice; settings: BXPC-3 model, 22 d, intraperitoneal once a day, T/C < 60% = effective
Description: as §1, §2

[6] = test system: human colon cancer cell strain Colo205 xenograft; assay: Human cancer xenograft tumor model in nude mouse; type: in vivo, BALB/C nude mice; settings: Colo-205 model, 21 d, intraperitoneal once a day, T/C < 60% = effective
Description: as §1, §2

[7] = test system: human uterine cancer cell strain Hela xenograft; assay: Human cancer xenograft tumor model in nude mouse; type: in vivo, BALB/C nude mice; settings: 21 d, intraperitoneal once a day, T/C < 60% = effective
Description: as §1, §2

[8] = test system: human ovarian cancer cell strain SKOV-3 xenograft; assay: Human cancer xenograft tumor model in nude mouse; type: in vivo, BALB/C nude mice; settings: SKOV-3 model, 21 d, intraperitoneal once a day, T/C < 60% = effective
Description: as §1, §2

[9] = test system: human cancer xenograft tumor models; assay: In vivo efficacy screening, summary over the xenograft models; design: species or system BALB/C nude mice; settings: 30 mg/kg I-1 against 80 mg/kg BSI-201, nude mouse xenografts
Description: 5-6 week old female or male BALB/C nude mice, about 18-20 g in weight, were raised. Human cancer xenograft tumor model in nude mouse was established by the following steps: human colon cancer cell strains HCT-116 and Colo205, human breast cancer cell strain MDA-MB435, human prostate cancer cell strain BXPC-3, human ovarian cancer cell strain SKOV-3, human lung cancer cell strain A549, human pancreatic cancer cell strain PANC-1, and human uterine cancer cell strain Hela were all obtained from ATCC. […] 0.2 mL cell suspension was drawn directly by a syringe with […] and subcutaneously transplanted into the scapula part of the rear part of nude mouse's left armpit, 2×10^6/0.2 mL for each mouse, and the tumor volume was measured every 2-3 days. […]
The mice were randomly divided into 5 groups, including negative control group (solvent), positive control group (BSI-201, 80 mg/kg), and three treatment groups with high, middle and low doses (40 mg/kg, 30 mg/kg, and 20 mg/kg respectively, wherein the high dose was below the MTD), and there were 8 nude mice in each group except that there are 16 ones in the negative control group. They were administered by intraperitoneal injection once a day for 3 consecutive weeks, during which body weight and tumor volume of the animals were detected and the death number of animals was recorded every 2 days. […]

NC(=O)c1ccc(I)c([N+](=O)[O-])c1 [BSI-201, 4-iodo-3-nitrobenzamide, reference compound]
Relative tumor proliferation rate T/C (%) ([1]; 80 mg/kg): 45%(80, 21)
Relative tumor proliferation rate T/C (%) ([2]; 80 mg/kg): 42%(80, 21)
Relative tumor proliferation rate T/C (%) ([3]; 80 mg/kg): 54%(80, 21)
Relative tumor proliferation rate T/C (%) ([4]; 80 mg/kg): 44%(80, 21)
Relative tumor proliferation rate T/C (%) ([5]; 80 mg/kg): 48%(80, 22)
Relative tumor proliferation rate T/C (%) ([6]; 80 mg/kg): 50%(80, 21)
Relative tumor proliferation rate T/C (%) ([7]; 80 mg/kg): 48%(80, 21)
Relative tumor proliferation rate T/C (%) ([8]; 80 mg/kg): 41%(80, 21)

C#Cc1ccc(C(N)=O)cc1[N+](=O)[O-] [Compound I-1, 4-ethynyl-3-nitrobenzamide]
Relative tumor proliferation rate T/C (%) ([1]; 30 mg/kg): 40%(30, 21)
Relative tumor proliferation rate T/C (%) ([2]; 30 mg/kg): 40%(30, 21)
Relative tumor proliferation rate T/C (%) ([3]; 30 mg/kg): 52%(30, 21)
Relative tumor proliferation rate T/C (%) ([4]; 30 mg/kg): 40%(30, 21)
Relative tumor proliferation rate T/C (%) ([5]; 30 mg/kg): 43%(30, 22)
Relative tumor proliferation rate T/C (%) ([6]; 30 mg/kg): 42%(30, 21)
Relative tumor proliferation rate T/C (%) ([7]; 30 mg/kg): 50%(30, 21)
Relative tumor proliferation rate T/C (%) ([8]; 30 mg/kg): 45%(30, 21)
in vivo efficacy compared with BSI-201 (in words) [9]: equivalent efficacy to that of 80 mg/kg BSI-201
